In brackets after ≈: the same amount, converted by molar mass. Read-outs that look alike come from different tables or passages of the source.
Experiments:
[1] = tested on: Streptococcus pyogenes A 308; assay: Antibacterial activity in vitro (MIC, two-fold agar dilution); type: cell-based; details: read-out: Minimal Inhibitory Concentration (MIC)
Text: (§1) Test 1. Antibacterial activity in vitro
1. Streptococcus pyogenes A 308

[2] = tested on: Staphylococcus aureus 503; assay: as above; details: Staphylococcus aureus, 503, 18 h, read-out: Minimal Inhibitory Concentration (MIC)
[3] = tested on: Pseudomonas aeruginosa 1771; assay: as above; type: cell-based; details: Muller Hinton agar, 10^7 CFU/ml, 37° C., 18 hours, read-out: Minimal Inhibitory Concentration (MIC)
Text: as §1
14. Pseudomonas aeruginosa 1771

gyrase of E. coli = gyrase of E. coli (Escherichia coli, UniProt P0AES4+P0AES6); assay: Inhibition of gyrase enzyme activity; type: biochemical; design: unit not given here; details: concentration to inhibit the enzyme activity of gyrase of E. coli
Text: (§2) Test 2. Selectivity Index

Escherichia coli TEM = assay: microbe, parasite or virus in culture; details: 18 h, read-out: Minimal Inhibitory Concentration (MIC)
[4] = tested on: Staphylococcus aureus SG 511; assay: Antibacterial activity in vitro (MIC, two-fold agar dilution); type: cell-based; details: SG511, Muller Hinton agar, 10^7 CFU/ml, 37° C., 18 hours, read-out: Minimal Inhibitory Concentration (MIC)
Text: as §1
4. Staphylococcus aureus SG 511

[5] = tested on: Enterobacter cloacae 1321E; assay: microbe, parasite or virus in culture; details: 18 h, read-out: Minimal Inhibitory Concentration (MIC)
Text: as §1

Escherichia coli 078 = assay: Antibacterial activity in vitro (MIC, two-fold agar dilution); details: Escherichia coli, 078, 18 h, read-out: Minimal Inhibitory Concentration (MIC)
[6] = tested on: calf thymus topoisomerase II; assay: Inhibition of topoisomerase II enzyme activity; type: biochemical; design: unit not given here; details: concentration to inhibit the enzyme activity of topoisomerase II (calf thymus)
Text: as §2

[7] = tested on: Streptococcus pyogenes A 77; assay: Antibacterial activity in vitro (MIC, two-fold agar dilution); type: cell-based; details: read-out: Minimal Inhibitory Concentration (MIC)
Text: as §1
2. Streptococcus pyogenes A 77

[8] = tested on: Staphylococcus aureus 285; assay: as above; details: Staphylococcus aureus, 285, 18 h, read-out: Minimal Inhibitory Concentration (MIC)
Salmonella typhimurium = assay: as above; details: Salmonella enterica, 18 h, read-out: Minimal Inhibitory Concentration (MIC)
Klebsiella oxytoca 1082E = assay: as above; details: 18 h, read-out: Minimal Inhibitory Concentration (MIC)
[9] = tested on: Klebsiella aerogenes 1552E; assay: as above; details: 18 h, read-out: Minimal Inhibitory Concentration (MIC)
Escherichia coli 1507E = assay: as above; details: 18 h, read-out: Minimal Inhibitory Concentration (MIC)
[10] = tested on: Streptococcus faecium MD 8b; assay: as above; type: cell-based; details: Enterococcus faecium, MD8B, read-out: Minimal Inhibitory Concentration (MIC)
Text: as §1
3. Streptococcus faecium MD 8b

Escherichia coli DC 2 = assay: as above; type: cell-based; details: DC2, Muller Hinton agar, 10^7 CFU/ml, 37° C., 18 hours, read-out: Minimal Inhibitory Concentration (MIC)
Text: as §1

Escherichia coli DC 0 = assay: as above; type: cell-based; details: read-out: Minimal Inhibitory Concentration (MIC)
Text: as §1

[11] = tested on: Pseudomonas aeruginosa 1592E; assay: as above; type: cell-based; details: Muller Hinton agar, 10^7 CFU/ml, 37° C., 18 hours, read-out: Minimal Inhibitory Concentration (MIC)
Text: as §1
13. Pseudomonas aeruginosa 1592 E

[12] = tested on: Pseudomonas aeruginosa 9027; assay: as above; details: Pseudomonas aeruginosa, 9027, 18 h, read-out: Minimal Inhibitory Concentration (MIC)
[13] = tested on: gyrase of E. coli and calf thymus topoisomerase II; details: calculated by equation 1 from IC100, Topo II and IC100, Gyrase
Procedure: as §2
Selectivity indexes of the compounds of the present invention and control compounds were measured using gyrase purified from of E. coli and calf thymus topoisomerase II obtained from Topogen. Co.
The selectivity index (S.I.) was calculated by the equation 1. [formula]
wherein, IC100, Topo II is the concentration of a compound to inhibit the enzyme activity of topoisomerase II and IC100, Gyrase is the concentration of a compound to inhibit the enzyme activity of gyrase of E. coli.

Enterobacter cloacae P99 = assay: microbe, parasite or virus in culture; details: P99, 18 h, read-out: Minimal Inhibitory Concentration (MIC)
Text: as §1
19. Enterobacter cloacae P 99

[14] = Streptococcus pyogenes, A308, 18 h
[15] = Streptococcus pyogenes, A77, 18 h

Chain of gyrase of E. coli (P0AES4 whole entry, one chain of several): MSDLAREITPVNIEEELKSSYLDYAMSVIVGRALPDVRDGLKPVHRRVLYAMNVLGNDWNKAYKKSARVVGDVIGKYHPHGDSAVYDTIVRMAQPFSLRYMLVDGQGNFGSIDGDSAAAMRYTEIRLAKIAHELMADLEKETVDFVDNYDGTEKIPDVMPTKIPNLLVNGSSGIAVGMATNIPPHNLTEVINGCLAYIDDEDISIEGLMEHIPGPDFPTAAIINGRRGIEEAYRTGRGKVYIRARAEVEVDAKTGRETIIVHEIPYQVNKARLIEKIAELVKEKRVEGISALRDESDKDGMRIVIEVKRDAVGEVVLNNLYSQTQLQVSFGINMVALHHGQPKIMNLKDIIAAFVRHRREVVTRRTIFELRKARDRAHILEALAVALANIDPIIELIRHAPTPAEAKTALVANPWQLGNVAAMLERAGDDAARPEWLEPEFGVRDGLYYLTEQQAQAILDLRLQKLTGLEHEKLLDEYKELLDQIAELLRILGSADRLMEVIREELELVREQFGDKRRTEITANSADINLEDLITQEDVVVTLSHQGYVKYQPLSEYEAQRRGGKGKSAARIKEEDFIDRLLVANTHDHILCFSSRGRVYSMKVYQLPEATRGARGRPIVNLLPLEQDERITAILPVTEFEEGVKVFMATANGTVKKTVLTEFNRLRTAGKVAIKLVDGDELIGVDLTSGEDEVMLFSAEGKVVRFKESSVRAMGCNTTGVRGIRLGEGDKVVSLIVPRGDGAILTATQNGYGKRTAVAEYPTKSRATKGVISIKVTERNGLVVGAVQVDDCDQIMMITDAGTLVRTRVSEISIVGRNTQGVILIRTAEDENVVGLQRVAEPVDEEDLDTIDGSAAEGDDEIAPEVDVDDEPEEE

| Structure (SMILES) | MIC [2] | MIC [3] | IC100, Gyrase (gyrase of E. coli) | MIC (Escherichia coli TEM) | MIC [4] | MIC [5] | MIC (Escherichia coli 078) | IC100, Topo II [6] | MIC [8] | MIC (Salmonella typhimurium) | MIC (Klebsiella oxytoca 1082E) | MIC [9] | MIC (Escherichia coli 1507E) | MIC (Escherichia coli DC 2) | MIC [11] | MIC [12] | S.I. (Selectivity Index) [13] | MIC (Enterobacter cloacae P99) | MIC [1, 14] | MIC [7, 15] | other results |
| --- | --- | --- | --- | --- | --- | --- | --- | --- | --- | --- | --- | --- | --- | --- | --- | --- | --- | --- | --- | --- | --- |
| Cc1c(N2CC3=CCCN[C@H]3C2)c(F)cn2c(=O)c(C(=O)O)cc(C3CC3)c12 [Example 1, 8-{[(R)-2,8-diazabicyclo[4.3. 0]non-5-en]-8-yl}-1-cyclopropyl-7-fluoro-9-methyl-4-oxo-4H-quinolizine-3-carboxylic acid] | 0.007 µg/mL (≈ 0.0183 µM) | 0.098 µg/mL (≈ 0.256 µM) | 0.5 | 0.007 µg/mL (≈ 0.0183 µM) | 0.007 µg/mL (≈ 0.0183 µM) | < 0.002 µg/mL | < 0.002 µg/mL | 1,000 | 0.013 µg/mL (≈ 0.0339 µM) | 0.004 µg/mL (≈ 0.0104 µM) | < 0.002 µg/mL | 0.013 µg/mL (≈ 0.0339 µM) | 0.007 µg/mL (≈ 0.0183 µM) | 0.013 µg/mL (≈ 0.0339 µM) | 0.098 µg/mL (≈ 0.256 µM) | 0.195 µg/mL (≈ 0.509 µM) | 2,000 | 0.004 µg/mL (≈ 0.0104 µM) |  |  | MIC ([1]; A308, Streptococcus pyogenes A 308, Muller Hinton agar, 10^7 CFU/ml, 37° C., 18 hours): 0.049 µg/mL (≈ 0.128 µM); MIC ([7]; A77, Streptococcus pyogenes A 77, Muller Hinton agar, 10^7 CFU/ml, 37° C., 18 hours): 0.025 µg/mL (≈ 0.0652 µM); MIC ([10]; Streptococcus faecium MD 8b, Muller Hinton agar, 10^7 CFU/ml, 37° C., 18 hours): 0.025 µg/mL (≈ 0.0652 µM); MIC (Escherichia coli DC 0; DC0, Escherichia coli DC 0, Muller Hinton agar, 10^7 CFU/ml, 37° C., 18 hours): 0.049 µg/mL (≈ 0.128 µM) |
| CC1CN(c2c(F)c(N)c3c(=O)c(C(=O)O)cn(C4CC4)c3c2F)CC(C)N1 (stereo not shown) [Sparfloxacin, 1-cyclopropyl-5-amino-6,8-difluoro-7-(3,5-dimethylpiperazin-1-yl)-4-oxoquinoline-3-carboxylic acid, reference compound] | 0.049 µg/mL (≈ 0.125 µM) | 0.781 µg/mL (≈ 1.99 µM) | 1.0 | 0.013 µg/mL (≈ 0.0331 µM) | 0.098 µg/mL (≈ 0.25 µM) | 0.004 µg/mL (≈ 0.0102 µM) | 0.004 µg/mL (≈ 0.0102 µM) | 500 | 0.049 µg/mL (≈ 0.125 µM) | 0.007 µg/mL (≈ 0.0178 µM) | < 0.002 µg/mL | 0.025 µg/mL (≈ 0.0637 µM) | 0.025 µg/mL (≈ 0.0637 µM) | 0.025 µg/mL (≈ 0.0637 µM) | 0.781 µg/mL (≈ 1.99 µM) | 0.781 µg/mL (≈ 1.99 µM) | 500 | 0.007 µg/mL (≈ 0.0178 µM) | 0.391 µg/mL (≈ 0.996 µM) | 0.195 µg/mL (≈ 0.497 µM) | MIC ([10]; 18 h): 0.391 µg/mL (≈ 0.996 µM); MIC (Escherichia coli DC 0; Escherichia coli, DC0, 18 h): 0.195 µg/mL (≈ 0.497 µM) |
| Cc1c(N2CC(CN)C(OCc3cccnc3)C2)c(F)cn2c(=O)c(C(=O)O)cc(C3CC3)c12 (stereo not shown) [Example 16, 8-{[3-(3-pyridylmethyl)oxy-4-aminomethylpyrrolidine]-1-yl}-1-cyclopropyl-7-fluoro-9-methyl-4-oxo-4H-quinolizine-3-carboxylic acid] | 0.013 µg/mL (≈ 0.0279 µM) | 0.195 µg/mL (≈ 0.418 µM) | 0.5 | 0.007 µg/mL (≈ 0.015 µM) | 0.013 µg/mL (≈ 0.0279 µM) | < 0.002 µg/mL | < 0.002 µg/mL | 1,000 | 0.013 µg/mL (≈ 0.0279 µM) | 0.004 µg/mL (≈ 0.00857 µM) | < 0.002 µg/mL | 0.013 µg/mL (≈ 0.0279 µM) | 0.013 µg/mL (≈ 0.0279 µM) | 0.013 µg/mL (≈ 0.0279 µM) | 0.195 µg/mL (≈ 0.418 µM) | 0.195 µg/mL (≈ 0.418 µM) | 2,000 | 0.004 µg/mL (≈ 0.00857 µM) | 0.098 µg/mL (≈ 0.21 µM) | 0.049 µg/mL (≈ 0.105 µM) | MIC ([10]; 18 h): 0.049 µg/mL (≈ 0.105 µM); MIC (Escherichia coli DC 0; Escherichia coli, DC0, 18 h): 0.098 µg/mL (≈ 0.21 µM) |
| O=C(O)c1cn(C2CC2)c2cc(N3CCNCC3)c(F)cc2c1=O [Ciprofloxacin, 1-cyclopropyl-6-fluoro-7-(piperazin-1-yl)-4-oxoquinoline-3-carboxylic acid, reference compound] | 0.391 µg/mL (≈ 1.18 µM) | 0.195 µg/mL (≈ 0.589 µM) | 0.5 | 0.007 µg/mL (≈ 0.0211 µM) | 0.195 µg/mL (≈ 0.589 µM) |  | 0.004 µg/mL (≈ 0.0121 µM) | 500 | 0.781 µg/mL (≈ 2.36 µM) | 0.007 µg/mL (≈ 0.0211 µM) | < 0.002 µg/mL | 0.013 µg/mL (≈ 0.0392 µM) | 0.007 µg/mL (≈ 0.0211 µM) | 0.049 µg/mL (≈ 0.148 µM) | 0.195 µg/mL (≈ 0.589 µM) | 0.195 µg/mL (≈ 0.589 µM) |  |  | 3.12 µg/mL (≈ 9.43 µM) | 0.781 µg/mL (≈ 2.36 µM) | MIC ([10]; 18 h): 0.391 µg/mL (≈ 1.18 µM); MIC (Escherichia coli DC 0; Escherichia coli, DC0, 18 h): 0.195 µg/mL (≈ 0.589 µM) |

Reference: patent US6235751A, “Quinolizine carboxylic acid derivatives” (Korean Research Institute of Chemical Technology, priority 1997, dated 2001)
